EC50 and IC50 data for 6 molecules are collected here from ChEMBL document CHEMBL1201862, “PubChem BioAssay data set” (2004).

Holding throughout (format): functional
The target of one test is T1, Protein RecA (Mycobacterium tuberculosis, UniProt P9WHJ3).
T1 sequence (P9WHJ3 whole entry): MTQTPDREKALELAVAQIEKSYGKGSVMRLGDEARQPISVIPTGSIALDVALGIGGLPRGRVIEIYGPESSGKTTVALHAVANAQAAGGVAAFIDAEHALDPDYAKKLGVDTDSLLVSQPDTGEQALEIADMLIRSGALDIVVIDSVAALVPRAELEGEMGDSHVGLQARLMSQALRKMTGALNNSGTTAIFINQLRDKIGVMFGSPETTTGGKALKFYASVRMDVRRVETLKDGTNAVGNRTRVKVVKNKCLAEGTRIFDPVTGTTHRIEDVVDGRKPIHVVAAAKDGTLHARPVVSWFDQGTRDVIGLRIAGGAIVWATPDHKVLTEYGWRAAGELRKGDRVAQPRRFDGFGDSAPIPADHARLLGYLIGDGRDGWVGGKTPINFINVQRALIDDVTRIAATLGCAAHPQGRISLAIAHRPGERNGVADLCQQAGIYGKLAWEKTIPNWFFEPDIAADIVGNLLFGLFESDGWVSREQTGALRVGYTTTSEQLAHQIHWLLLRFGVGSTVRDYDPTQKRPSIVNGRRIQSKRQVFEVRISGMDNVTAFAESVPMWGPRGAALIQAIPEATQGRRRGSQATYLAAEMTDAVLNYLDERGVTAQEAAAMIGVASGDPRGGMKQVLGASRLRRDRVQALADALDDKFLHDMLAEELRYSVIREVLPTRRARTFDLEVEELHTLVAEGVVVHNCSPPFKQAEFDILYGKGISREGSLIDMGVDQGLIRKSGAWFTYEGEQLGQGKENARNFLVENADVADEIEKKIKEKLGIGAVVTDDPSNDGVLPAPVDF
The test can be described thus: Fluorescence Cell-Free Homogeneous Dose Retest to Identify Inhibitors of RecA-Intein Splicing Activity. [Related pubchem assays (depositor defined):AID2097, AID2223, AID489010, AID492950].

In test [1] the target is T2, Sentrin-specific protease 6 (Homo sapiens, UniProt Q9GZR1).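 Note: Luminescence-based dose-response confirmatory assay of SENP6 inhibition, following up an ultra-high-throughput screen.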
T2 sequence (Q9GZR1 whole entry): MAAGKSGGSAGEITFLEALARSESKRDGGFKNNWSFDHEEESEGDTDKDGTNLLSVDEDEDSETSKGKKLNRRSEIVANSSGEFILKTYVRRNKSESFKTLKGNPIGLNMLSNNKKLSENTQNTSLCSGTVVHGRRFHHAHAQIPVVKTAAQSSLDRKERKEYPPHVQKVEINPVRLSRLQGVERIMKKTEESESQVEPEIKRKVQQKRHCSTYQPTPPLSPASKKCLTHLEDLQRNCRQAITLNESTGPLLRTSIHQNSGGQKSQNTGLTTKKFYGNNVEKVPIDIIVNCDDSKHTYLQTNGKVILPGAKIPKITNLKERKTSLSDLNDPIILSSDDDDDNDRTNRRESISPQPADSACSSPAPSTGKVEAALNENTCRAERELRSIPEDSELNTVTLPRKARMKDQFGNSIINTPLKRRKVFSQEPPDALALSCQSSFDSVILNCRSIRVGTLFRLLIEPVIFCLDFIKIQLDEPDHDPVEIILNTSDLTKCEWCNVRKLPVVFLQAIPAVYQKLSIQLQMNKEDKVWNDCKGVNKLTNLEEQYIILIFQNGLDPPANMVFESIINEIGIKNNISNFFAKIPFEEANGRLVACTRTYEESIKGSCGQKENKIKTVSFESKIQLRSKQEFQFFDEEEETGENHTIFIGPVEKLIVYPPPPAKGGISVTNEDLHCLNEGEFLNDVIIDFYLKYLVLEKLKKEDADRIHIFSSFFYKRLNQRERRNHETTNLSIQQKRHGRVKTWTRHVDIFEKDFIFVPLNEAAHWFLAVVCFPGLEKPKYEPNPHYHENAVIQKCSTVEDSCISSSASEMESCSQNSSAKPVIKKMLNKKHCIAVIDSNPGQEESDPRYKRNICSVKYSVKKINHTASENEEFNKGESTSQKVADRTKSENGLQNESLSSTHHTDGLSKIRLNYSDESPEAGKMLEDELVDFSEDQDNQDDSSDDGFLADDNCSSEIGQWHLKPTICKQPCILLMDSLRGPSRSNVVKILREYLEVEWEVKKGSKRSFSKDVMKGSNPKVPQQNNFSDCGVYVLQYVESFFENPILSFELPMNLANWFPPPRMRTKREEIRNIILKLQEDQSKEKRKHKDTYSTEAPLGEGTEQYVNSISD

Test [2] has as its target T3, Sentrin-specific protease 8 (Homo sapiens, UniProt Q96LD8).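 Note: luminescence read-out of SENP8 inhibition, dose-response confirmation following an ultra-high-throughput screen.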
T3 sequence (Q96LD8 whole entry): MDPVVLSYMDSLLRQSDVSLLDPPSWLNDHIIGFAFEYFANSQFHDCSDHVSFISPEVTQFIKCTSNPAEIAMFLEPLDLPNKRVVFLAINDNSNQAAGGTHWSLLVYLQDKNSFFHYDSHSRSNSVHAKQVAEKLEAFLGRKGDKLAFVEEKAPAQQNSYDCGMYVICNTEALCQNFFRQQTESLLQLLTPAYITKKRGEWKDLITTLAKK

The structures appear in SMILES notation. Calls of active or inactive are those of the source. Cut-off read from the data, not from the text of the source, for most assays here: actives have a measured IC50 and inactives only a lower limit.

Broadly, the EC50 is the concentration needed to bring the measured effect to its halfway point. For the molecule `CC(=O)NC1C(=O)N(CCN2CCOCC2)c2ccc(F)cc21` (centres undefined), the EC50 at Protein RecA was 12.1 µM (active).
One may read the IC50 as the point on the concentration scale where inhibition reaches its midpoint. On to `O=C1N=C(NS(=O)(=O)Cc2ccccc2)S/C1=C1\C(=O)Nc2ccccc21`, for which the figures for the IC50 in test [1] and in test [2] were 15.7 µM (active) and 24.5 µM (active), respectively.
On to `O=C1C=C(N2CCCCC2)c2ccccc2C1=O`, for which, on Protein RecA, the EC50 was 1.25 µM (active).
On the same count and under the same terms, next, `O=C(O)C1Nc2c(O)cc(Cl)c([N+](=O)[O-])c2C2C=CCC12` (centres undefined): 11.5 µM (active).
In the case of `Clc1ccc2nc(-c3ccc(Br)s3)cn2c1`, the IC50 in test [1] is 12.3 µM (active); in test [2], 16.5 µM (active).
For `Oc1ccc(N=Nc2c(O)ccc3ccccc23)cc1`, in that order: 13 µM (active) and 8.8 µM (active).
